The text below walks through data of publication PMC6789118, “Structural basis for substrate specificity and regulation of nucleotide sugar transporters in the lipid bilayer” (Nature Communications, 2019).

One experiment deals with T1, Vrg4 N220A variant (Saccharomyces cerevisiae, UniProt P40107, N220A).
T1 construct: GFP (cleaved yes); made in house; host or cells: S. cerevisiae strain BJ5460
In words: IC50 competition of 3H-GMP uptake into proteoliposomes, N220A variant. The class given is biochemical. On the procedure: (§1) Vrg4 was reconstituted into liposomes made from yeast polar lipids using the dilution method into preformed lipid vesicles. Chloroform was removed from yeast polar lipids (Avanti polar lipids) through the use of a rotary evaporator to obtain a thin film. The lipids were washed twice in pentane and then resuspended at 5 mg ml^−1 in lipid buffer (20 mM HEPES pH 7.5, 100 mM KCl). These lipid vesicles were frozen and thawed twice in liquid nitrogen and stored at −80 °C until required. For reconstitution, the lipids were thawed and then extruded first through a 0.8-μm filter and then through a 0.4-μm filter. Purified Vrg4 in DM (at 0.5 μg μl^−1 concentration) was added to the lipids at a final lipid:protein ratio of 80:1 and incubated for 1 h at room temperature, then for a further 1 h on ice; for the no-protein liposome control, the same volume of gel filtration buffer containing 0.3% DM was added. […] The amount of protein (both wild-type and mutant variants) reconstituted into the lipids was quantified by SDS–PAGE and densitometry.
(§2) To analyse transport activity, proteoliposomes were thawed and the desired concentration of internal substrate was added (typically 0.5 mM for mutant variant analysis). […] The amount of GMP transported inside the liposomes was calculated by scintillation counting in Ultima Gold (Perkin Elmer) […]

For another experiment, the target named is T2, Vrg4 N221A variant (Saccharomyces cerevisiae, UniProt P40107, N221A).
T2 construct: GFP (cleaved yes); made in house; host or cells: S. cerevisiae strain BJ5460
In words: IC50 competition of 3H-GMP uptake into proteoliposomes, N221A variant. Format: biochemical. On the procedure:
as §1, §2

The subject of the next experiment is Vrg4 wild type (WT). Further details: method as in PMID 29143814. The conditions noted are these: WT Vrg4 in yeast polar lipid liposomes, 0.5 mM GMP inside, 3H-GMP uptake, cold competitor outside, 3 min; WT data published previously ref 10; cited from earlier work.
The target of the next experiment is T3, Vrg4 Y281F variant (Saccharomyces cerevisiae, UniProt P40107, Y281F).
T3 construct: GFP (cleaved yes); made in house; host or cells: S. cerevisiae strain BJ5460
Kind of experiment: IC50 competition of 3H-GMP uptake into proteoliposomes, Y281F variant. The class given is biochemical. As for the experimental part:
as §1, §2

The next experiment addresses T4, Vrg4 S266A variant (Saccharomyces cerevisiae, UniProt P40107, S266A).
T4 construct: GFP (cleaved yes); made in house; host or cells: S. cerevisiae strain BJ5460
In words: IC50 competition of 3H-GMP uptake into proteoliposomes, S266A variant. The class given is biochemical. The conditions noted are these: in words. As for the experimental part: as §1, §2

The target of a further experiment is T5, Vrg4 S269A variant (Saccharomyces cerevisiae, UniProt P40107, S269A).
T5 construct: GFP (cleaved yes); made in house; host or cells: S. cerevisiae strain BJ5460
Kind of experiment: IC50 competition of 3H-GMP uptake into proteoliposomes, S269A variant. Format: biochemical. Conditions: S269A variant (removal of S269); in words. As for the experimental part: as §1, §2

Experiment [1] addresses T6, Vrg4 (Saccharomyces cerevisiae, UniProt P40107).
T6 construct: GFP (cleaved yes); made in house; host or cells: S. cerevisiae strain BJ5460
T6 sequence (P40107 1-337): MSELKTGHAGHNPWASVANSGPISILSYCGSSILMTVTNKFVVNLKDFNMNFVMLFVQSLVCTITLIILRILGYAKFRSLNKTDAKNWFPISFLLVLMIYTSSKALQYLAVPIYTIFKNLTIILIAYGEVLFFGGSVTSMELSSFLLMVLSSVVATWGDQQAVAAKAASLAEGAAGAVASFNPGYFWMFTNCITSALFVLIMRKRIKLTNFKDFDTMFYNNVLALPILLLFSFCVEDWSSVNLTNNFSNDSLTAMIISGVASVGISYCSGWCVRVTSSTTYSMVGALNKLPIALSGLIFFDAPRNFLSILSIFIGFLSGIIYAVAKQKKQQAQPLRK
Kind of experiment: Liposome-based transport rates under different antiport conditions. Format: biochemical. The conditions noted are these: 22 °C, rank among antiport conditions. On the procedure: as §1, §2

Experiment [2] has as its target T6, Vrg4. Further details: method as in PMID 29143814. The conditions noted are these: GDP-mannose:GMP compared with GMP:GMP in liposome-based assays ref 10; cited from earlier work.
The next experiment concerns the target T7, Vrg4 Y281A variant (Saccharomyces cerevisiae, UniProt P40107, Y281A).
T7 construct: GFP (cleaved yes); made in house; host or cells: S. cerevisiae strain BJ5460
In words: Thermal stability in the presence of ligand, Y281A variant. The class given is binding. The conditions noted are these: 1 mM GMP, N=3. As for the experimental part: (§3) Thermal stability of protein samples was analysed using a Prometheus NT.48 (NanoTemper Technologies)[39]. The proteins were diluted to a final concentration of 0.7 mg ml^−1 into buffer containing 20 mM Hepes, pH 7.5, 50 mM KCl, 2 mM magnesium sulphate and 0.03% (w/v) DDM or 0.3% DM. Thermal measurements were carried out in a range from 20 to 95 °C with 1 °C per min steps. The resulting melting curves were generated by plotting the first derivative of the fluorescence ratio at 330 nm/350 nm (excitation 280 nm) against temperature. For stability in the presence of ligand (GMP) the ligand was added to the sample at a final concentration of 0.5 mM and the sample was incubated at room temperature for 5 min prior to analysis. For the sample in liposomes, reconstituted Vrg4, at a protein concentration of 0.4 mg ml^−1, in yeast polar lipids were prepared in 20 mM Hepes, pH 7.5, 50 mM KCl, 2 mM magnesium sulphate and extruded through a 0.4 μm membrane prior to analysis. For the solubilised liposome sample, liposomes were solubilised in 1.5% DDM for one hour and centrifuged at 100,000 × g for 30 min prior to analysis.

The target of experiment [3] is T8, Vrg4 K118A variant (Saccharomyces cerevisiae, UniProt P40107, K118A).
T8 construct: GFP (cleaved yes); made in house; host or cells: S. cerevisiae strain BJ5460
In words: Thermal stability in the presence of ligand, K118A variant. Format: binding. The conditions noted are these: 1 mM GMP. On the procedure: as §3

The target of experiment [4] is T9, Vrg4 K118A variant (Saccharomyces cerevisiae, UniProt P40107 1-337, K118A).
T9 sequence: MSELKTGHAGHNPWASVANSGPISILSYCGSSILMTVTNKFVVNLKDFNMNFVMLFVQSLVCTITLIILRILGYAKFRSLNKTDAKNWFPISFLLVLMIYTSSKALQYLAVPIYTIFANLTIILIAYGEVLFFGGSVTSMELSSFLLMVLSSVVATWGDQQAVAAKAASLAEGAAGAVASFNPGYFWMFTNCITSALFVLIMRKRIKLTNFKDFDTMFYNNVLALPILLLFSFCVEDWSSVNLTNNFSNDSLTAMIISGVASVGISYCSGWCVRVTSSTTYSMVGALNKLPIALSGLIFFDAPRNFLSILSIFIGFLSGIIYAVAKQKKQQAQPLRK
In words: cell-based or functional assay.

T2 sequence (P40107 whole entry N221A): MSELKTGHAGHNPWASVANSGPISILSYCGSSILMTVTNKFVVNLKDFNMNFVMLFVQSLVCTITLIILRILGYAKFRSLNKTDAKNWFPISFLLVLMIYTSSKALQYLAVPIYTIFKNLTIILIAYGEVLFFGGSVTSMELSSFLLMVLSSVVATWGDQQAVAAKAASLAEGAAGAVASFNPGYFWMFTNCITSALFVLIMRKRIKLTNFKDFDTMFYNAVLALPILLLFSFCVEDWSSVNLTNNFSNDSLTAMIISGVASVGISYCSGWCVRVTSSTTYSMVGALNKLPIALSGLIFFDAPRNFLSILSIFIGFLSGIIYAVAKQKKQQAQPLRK
T1 sequence (P40107 whole entry N220A): as the sequence (P40107 whole entry N221A) above, with N220A, A221N counted along it
T5 sequence (P40107 whole entry S269A): as the sequence (P40107 whole entry N221A) above, with A221N, S269A counted along it
T4 sequence (P40107 whole entry S266A): as the sequence (P40107 whole entry N221A) above, with A221N, S266A counted along it
T3 sequence (P40107 whole entry Y281F): as the sequence (P40107 whole entry N221A) above, with A221N, Y281F counted along it
T7 sequence (P40107 whole entry Y281A): as the sequence (P40107 whole entry N221A) above, with A221N, Y281A counted along it

By IC50 is commonly meant the point on the concentration scale where inhibition reaches its midpoint. Take `Nc1ncnc2c1ncn2[C@@H]1O[C@H](COP(=O)(O)O)[C@@H](O)[C@H]1O` [AMP]: at Vrg4 N220A variant (N220A variant, IC50 analysis, in words), the “affinity compared with WT” value was “markedly reduced”. Moreover, the IC50 is 27 µM on Vrg4 N221A variant and 50 µM with Vrg4 wild type (WT).

`Nc1nc2c(ncn2[C@@H]2O[C@H](COP(=O)(O)OP(=O)(O)O[C@H]3O[C@H](CO)[C@@H](O)[C@H](O)[C@@H]3O)[C@@H](O)[C@H]2O)c(=O)[nH]1` [GDP-mannose]: the “affinity of the variant compared with wild type” value at Vrg4 Y281F variant (Y281F variant, IC50 analysis, in words) was “remains the same as wild type”. Further, on Vrg4 S266A variant (IC50 analysis), the “affinity compared with WT” value is listed as “only slightly reduced”. On Vrg4 S269A variant, the “change in the IC50 compared with WT” value was “did not result in any significant change”. Also, the transport rate entry at Vrg4 [1] (GDP-mannose:GDP-mannose antiport (transported against itself), 0.5 mM inside, 20 μM outside) is “fastest”. Besides, the IC50 in the experiment on Vrg4 wild type (WT) is 7.6 µM. For the same molecule, the transport efficiency entry on Vrg4 [2] is recorded as “more efficient”.

On to `Nc1nc2c(ncn2[C@@H]2O[C@H](COP(=O)(O)O)[C@@H](O)[C@H]2O)c(=O)[nH]1` [GMP, guanine monophosphate], for which the IC50 is 23 µM on Vrg4 Y281F variant, 12 µM on Vrg4 N220A variant, 22 µM on Vrg4 N221A variant and 7 µM in the experiment with Vrg4 wild type (WT). In addition, on Vrg4 S266A variant, the “IC50 value for GMP transport compared with WT” value was “significant increase”. For the same molecule, on Vrg4 S269A variant, the “change in the IC50 compared with WT” value is listed as “did not result in any significant change”. Moreover, the transport rate entry on Vrg4 [1] (GMP:AMP antiport, 1 mM AMP inside, 20 μM GMP outside) is “slowest”. Further, the “thermal stabilisation of the protein by ligand” value is on record as “not stabilised” on Vrg4 Y281A variant and “stabilised to a similar extent as WT Vrg4” on Vrg4 K118A variant [3].

B1: Vrg4, GDP-mannose transporter from Saccharomyces cerevisiae (wild type) (natural protein)
chain: MSELKTGHAGHNPWASVANSGPISILSYCGSSILMTVTNKFVVNLKDFNMNFVMLFVQSLVCTITLIILRILGYAKFRSLNKTDAKNWFPISFLLVLMIYTSSKALQYLAVPIYTIFKNLTIILIAYGEVLFFGGSVTSMELSSFLLMVLSSVVATWGDQQAVAAKAASLAEGAAGAVASFNPGYFWMFTNCITSALFVLIMRKRIKLTNFKDFDTMFYNNVLALPILLLFSFCVEDWSSVNLTNNFSNDSLTAMIISGVASVGISYCSGWCVRVTSSTTYSMVGALNKLPIALSGLIFFDAPRNFLSILSIFIGFLSGIIYAVAKQKKQQAQPLRK
Regarding B1, the “dominant negative assay: transport of 3H-GMP into liposomes reconstituted with equimolar WT and K118A (also at 75 and 25% WT), relative to WT alone” value with Vrg4 K118A variant [4] is roughly 75%.
